Residues, ends and D or L forms follow the SMILES beside them. *: point of attachment. Cbz = O=C(OCc1ccccc1)*; CH2F = FC*
Tested on: primary Th1 cells
Assay: protease inhibitors assay: recovery of antigen responses of anergised primary Th1 cells (ELISA or RNase protection)
Format: cell-based, mice
Conditions: single inhibitor, two experiments
Description: Th1 cells were anergised by pretreatment with 1 μg/ml plate-bound antiCD3ε in the presence of 100 μM Z-VAD.fink (Clabiochem), 5 μM NLVS (Calbiochem) and/or 10 μM lactacystein (Calbiochem) for 16 hours. After that, cells were washed three times and left resting for 48-72 hours.
Whether anergy could be prevented by including caspase and proteasome inhibitors in the first step of pretreatment with ionomycin or anti-CD3 was tested to evaluate the functional importance of proteolytic pathways in anergy induction. […] The variability likely reflects the fact that the proteasome inhibitors are toxic, and needed to be washed away hours to days before the assay stimuli (antigen/APC or anti-CD3/anti-CD28) were applied. […] Similar results were obtained with the D5 T cell clone. Thus directed proteolysis of signaling proteins may be one of several mechanisms that cooperate to maintain lymphocyte anergy.

SMILES | recovery of IL-2 production [%]
CC(C)CC(C=CS(C)(=O)=O)NC(=O)C(CC(C)C)NC(=O)C(CC(C)C)NC(=O)Cc1cc(I)c(O)c([N+](=O)[O-])c1 (centres unmarked) [NLVS] | 112
COC(=O)C[C@H](NC(=O)[C@H](C)NC(=O)[C@@H](NC(=O)OCc1ccccc1)C(C)C)C(=O)CF [ZVAD] (Cbz-Val-Ala-Asp(OMe)-CH2F) | 90
